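Compound exposure: 48 hours, 5 concentrations, 96-well plates. TGI is the concentration that stops growth completely.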
Tests used:
Assay in all cases: inhibition of tumour cell growth, NCI panel, 48 h
[1] = tested on: 786-0 renal
[2] = tested on: A498 renal
[3] = tested on: A549 NSCLC
[4] = tested on: ACHN renal
[5] = tested on: BT-549 breast
[6] = tested on: CAKI-1 renal
[7] = tested on: CCRF-CEM leukemia
[8] = tested on: COLO 205 colon
[9] = tested on: DU-145 prostate
[10] = tested on: EKVX NSCLC
[11] = tested on: HCT-116 colon
[12] = tested on: HCT-15 colon
[13] = tested on: HOP-62 NSCLC
[14] = tested on: HOP-92 NSCLC
[15] = tested on: HS 578T breast
[16] = tested on: HT29 colon
[17] = tested on: IGROV1 ovarian
[18] = tested on: K-562 leukemia
[19] = tested on: KM12 colon
[20] = tested on: LOX IMVI melanoma
[21] = tested on: M14 melanoma
[22] = tested on: MALME-3M melanoma
[23] = tested on: MDA-MB-231 breast
[24] = tested on: MDA-MB-435
[25] = tested on: MDA-N
[26] = tested on: MOLT-4 leukemia
[27] = tested on: NCI-H226 lung
[28] = tested on: NCI-H23 lung
[29] = tested on: NCI-H522 lung
[30] = tested on: NCI/ADR-RES ovarian
[31] = tested on: OVCAR-3 ovarian
[32] = tested on: OVCAR-4 ovarian
[33] = tested on: OVCAR-5 ovarian
[34] = tested on: OVCAR-8 ovarian
[35] = tested on: PC-3 prostate
[36] = tested on: RPMI-8226 leukemia
[37] = tested on: RXF 393 renal
[38] = tested on: SF-268 CNS
[39] = tested on: SF-295 CNS
[40] = tested on: SK-MEL-2 melanoma
[41] = tested on: SK-MEL-28 melanoma
[42] = tested on: SK-MEL-5 melanoma
[43] = tested on: SK-OV-3 ovarian
[44] = tested on: SN12C renal
[45] = tested on: SNB-19 CNS
[46] = tested on: SNB-75 CNS
[47] = tested on: SW-620 colon
[48] = tested on: T-47D breast
[49] = tested on: TK-10 renal
[50] = tested on: U251 CNS
[51] = tested on: UACC-257 melanoma
[52] = tested on: UACC-62 melanoma
[53] = tested on: UO-31 renal
[54] = tested on: HCC-2998 colon
[55] = tested on: HL-60(TB) leukemia
[56] = tested on: NCI-H460 lung
[57] = tested on: SR leukemia
[58] = tested on: SF-539 CNS

SMILES: O=S(=O)(Nc1nc2ccccc2n1S(=O)(=O)c1ccccc1)c1ccccc1
- TGI [1]: > 100 µM
- TGI [2]: > 100 µM
- TGI [3]: > 100 µM
- TGI [4]: 61.9 µM
- TGI [5]: > 100 µM
- TGI [6]: > 100 µM
- TGI [7]: 73.8 µM
- TGI [8]: > 100 µM
- TGI [9]: > 100 µM
- TGI [10]: > 100 µM
- TGI [11]: > 100 µM
- TGI [12]: > 100 µM
- TGI [13]: > 100 µM
- TGI [14]: > 100 µM
- TGI [15]: > 100 µM
- TGI [16]: > 100 µM
- TGI [17]: > 100 µM
- TGI [18]: > 100 µM
- TGI [19]: > 100 µM
- TGI [20]: > 100 µM
- TGI [21]: > 100 µM
- TGI [22]: > 100 µM
- TGI [23]: > 100 µM
- TGI [24]: > 100 µM
- TGI [25]: > 100 µM
- TGI [26]: > 100 µM
- TGI [27]: > 100 µM
- TGI [28]: > 100 µM
- TGI [29]: > 100 µM
- TGI [30]: > 100 µM
- TGI [31]: > 100 µM
- TGI [32]: > 100 µM
- TGI [33]: > 100 µM
- TGI [34]: > 100 µM
- TGI [35]: > 100 µM
- TGI [36]: > 100 µM
- TGI [37]: > 100 µM
- TGI [38]: > 100 µM
- TGI [39]: > 100 µM
- TGI [40]: > 100 µM
- TGI [41]: > 100 µM
- TGI [42]: > 100 µM
- TGI [43]: > 100 µM
- TGI [44]: > 100 µM
- TGI [45]: > 100 µM
- TGI [46]: > 100 µM
- TGI [47]: > 100 µM
- TGI [48]: > 100 µM
- TGI [49]: > 100 µM
- TGI [50]: > 100 µM
- TGI [51]: > 100 µM
- TGI [52]: > 100 µM
- TGI [53]: > 100 µM

SMILES: c1ccc(N=C(N2CCCCC2)N(CCN2CCCCC2)c2ccccc2)cc1
- TGI [3]: 14.2 µM
- TGI [4]: 4.58 µM
- TGI [6]: 14.1 µM
- TGI [7]: 2.03 µM
- TGI [8]: 11.2 µM
- TGI [9]: 12.7 µM
- TGI [54]: 5.16 µM
- TGI [11]: 4.18 µM
- TGI [12]: 12.7 µM
- TGI [55]: 1.02 µM
- TGI [13]: 3.07 µM
- TGI [14]: 6.2 µM
- TGI [15]: 3.51 µM
- TGI [16]: 2.93 µM
- TGI [17]: 12.1 µM
- TGI [18]: 4.27 µM
- TGI [20]: 2.39 µM
- TGI [21]: 16.1 µM
- TGI [23]: 11 µM
- TGI [24]: 9.01 µM
- TGI [25]: 2.96 µM
- TGI [26]: 1.74 µM
- TGI [27]: 16 µM
- TGI [28]: 7.17 µM
- TGI [56]: 2.02 µM
- TGI [29]: 4.58 µM
- TGI [30]: 4.29 µM
- TGI [31]: 2.51 µM
- TGI [32]: 17 µM
- TGI [33]: 8.01 µM
- TGI [34]: 11.3 µM
- TGI [35]: 3.72 µM
- TGI [36]: 0.627 µM
- TGI [39]: 2.21 µM
- TGI [40]: 4.64 µM
- TGI [41]: 8.65 µM
- TGI [42]: 3.3 µM
- TGI [43]: 14 µM
- TGI [44]: 12.5 µM
- TGI [45]: 14.4 µM
- TGI [46]: 6.44 µM
- TGI [57]: 2.31 µM
- TGI [47]: 13.7 µM
- TGI [48]: 9.23 µM
- TGI [49]: 14.2 µM
- TGI [50]: 5.39 µM
- TGI [51]: 6.61 µM
- TGI [53]: 8.07 µM

SMILES: O=C(OC1C(Oc2ccccc2COC(=O)C2(O)C=CCCC2=O)OC(CO)C(O)C1O)c1ccccc1 (stereo not given)
- TGI [1]: > 100 µM
- TGI [3]: 38.8 µM
- TGI [4]: > 100 µM
- TGI [6]: 28.3 µM
- TGI [8]: 90.3 µM
- TGI [9]: > 100 µM
- TGI [11]: > 100 µM
- TGI [12]: > 100 µM
- TGI [55]: 54.6 µM
- TGI [13]: > 100 µM
- TGI [14]: 42.5 µM
- TGI [15]: 56.4 µM
- TGI [16]: > 100 µM
- TGI [17]: > 100 µM
- TGI [18]: > 100 µM
- TGI [19]: > 100 µM
- TGI [20]: > 100 µM
- TGI [21]: > 100 µM
- TGI [22]: 82.1 µM
- TGI [23]: > 100 µM
- TGI [24]: > 100 µM
- TGI [25]: > 100 µM
- TGI [26]: 76.9 µM
- TGI [27]: > 100 µM
- TGI [28]: > 100 µM
- TGI [56]: > 100 µM
- TGI [29]: 51.1 µM
- TGI [30]: > 100 µM
- TGI [32]: > 100 µM
- TGI [33]: > 100 µM
- TGI [34]: > 100 µM
- TGI [35]: > 100 µM
- TGI [36]: 58.1 µM
- TGI [38]: 93.5 µM
- TGI [58]: > 100 µM
- TGI [40]: > 100 µM
- TGI [41]: > 100 µM
- TGI [42]: 17.9 µM
- TGI [43]: > 100 µM
- TGI [44]: > 100 µM
- TGI [45]: > 100 µM
- TGI [46]: 60 µM
- TGI [57]: > 100 µM
- TGI [47]: > 100 µM
- TGI [49]: > 100 µM
- TGI [50]: > 100 µM
- TGI [51]: > 100 µM
- TGI [52]: > 100 µM
- TGI [53]: > 100 µM
